Assay results as given in PubChem BioAssay AID2060890 (Molecular Pharmacology Branch, DTP, NCI, 2025).
Blank lines part the entries; values can stand above or below the molecule they belong to.

Tested on: LG0703-F948-PDC complex spheroid viability
Test: Anticancer human tumor LG0703-F948-PDC patient-derived lung adenocarcinoma cell line growth inhibition [RAS]
Conditions: for viability, T/C: stronger effect = lower value
In short: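 Multi-cell-type spheroids: tumor cells plus HUVEC endothelial cells and mesenchymal stem cells. RAS-pathway inhibitors were combined with targeted agents, each dosed in half-log steps down from clinical Cmax, or from 10 microM when Cmax was unknown.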

[1] = curve of first compound, second compound 0.000949 µM
[2] = curve of first compound, second compound 0.003 µM
[3] = curve of first compound, second compound 0.00949 µM
[4] = curve of first compound, second compound 0.03 µM
[5] = curve of first compound, second compound 0.0949 µM
[6] = curve of first compound, second compound 0.3 µM
[7] = second compound 0.000949 µM, first compound 0.0316 µM
[8] = second compound 0.000949 µM, first compound 0.1 µM
[9] = second compound 0.000949 µM, first compound 0.316 µM
[10] = second compound 0.000949 µM, first compound 1 µM
[11] = second compound 0.000949 µM, first compound 3.16 µM
[12] = second compound 0.000949 µM, first compound 10 µM
[13] = second compound 0.003 µM, first compound 0.0316 µM
[14] = second compound 0.003 µM, first compound 0.1 µM
[15] = second compound 0.003 µM, first compound 0.316 µM
[16] = second compound 0.003 µM, first compound 1 µM
[17] = second compound 0.003 µM, first compound 3.16 µM
[18] = second compound 0.003 µM, first compound 10 µM
[19] = second compound 0.00949 µM, first compound 0.0316 µM
[20] = second compound 0.00949 µM, first compound 0.1 µM
[21] = second compound 0.00949 µM, first compound 0.316 µM
[22] = second compound 0.00949 µM, first compound 1 µM
[23] = second compound 0.00949 µM, first compound 3.16 µM
[24] = second compound 0.00949 µM, first compound 10 µM
[25] = second compound 0.03 µM, first compound 0.0316 µM
[26] = second compound 0.03 µM, first compound 0.1 µM
[27] = second compound 0.03 µM, first compound 0.316 µM
[28] = second compound 0.03 µM, first compound 1 µM
[29] = second compound 0.03 µM, first compound 3.16 µM
[30] = second compound 0.03 µM, first compound 10 µM
[31] = second compound 0.0949 µM, first compound 0.0316 µM
[32] = second compound 0.0949 µM, first compound 0.1 µM
[33] = second compound 0.0949 µM, first compound 0.316 µM
[34] = second compound 0.0949 µM, first compound 1 µM
[35] = second compound 0.0949 µM, first compound 3.16 µM
[36] = second compound 0.0949 µM, first compound 10 µM
[37] = second compound 0.3 µM, first compound 0.0316 µM
[38] = second compound 0.3 µM, first compound 0.1 µM
[39] = second compound 0.3 µM, first compound 0.316 µM
[40] = second compound 0.3 µM, first compound 1 µM
[41] = second compound 0.3 µM, first compound 3.16 µM
[42] = second compound 0.3 µM, first compound 10 µM
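Further: spheroids exposed to agents for 7 days.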
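Wherever viability, T/C is given: 100% = DMSO vehicle wells.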

Compound: CCn1c(-c2cccnc2C(C)OC)c2c3cc(ccc31)N1CCOC(CC(NC(=O)C(C(C)C)N(C)C(=O)C3(F)CCN(C(=O)C#CC(C)(C)N(C)C)CC3)C(=O)N3CCCC(N3)C(=O)OCC(C)(C)C2)C1 (configuration not stated)
viability, T/C (compound 0.000949 µM): 99.8% [middle of 8 runs]
viability, T/C (compound 0.00949 µM): 101% [middle of 8 runs]
viability, T/C (compound 0.03 µM): 101% [middle of 8 runs]
viability, T/C (compound 0.0949 µM): 82.6% [middle of 8 runs]
viability, T/C (compound 0.3 µM): 50.1% [middle of 8 runs]

Compound: Cc1nc(N2CCC3(CC2)COC(C)C3N)c(CO)nc1Sc1ccnc(N)c1Cl (configuration not stated) + CCn1c(-c2cccnc2C(C)OC)c2c3cc(ccc31)N1CCOC(CC(NC(=O)C(C(C)C)N(C)C(=O)C3(F)CCN(C(=O)C#CC(C)(C)N(C)C)CC3)C(=O)N3CCCC(N3)C(=O)OCC(C)(C)C2)C1
IC50 [1]: 0.548 µM
IC50 [2]: 0.337 µM
IC50 [3]: 0.402 µM
IC50 [4]: 0.39 µM
IC50 [5]: 0.14 µM
IC50 [6]: < 0.0316 µM
viability, T/C [7]: 100%
viability, T/C [8]: 68.4%
viability, T/C [9]: 61.6%
viability, T/C [10]: 43.1%
viability, T/C [11]: 24.8%
viability, T/C [12]: 13%
viability, T/C [13]: 87.8%
viability, T/C [14]: 76%
viability, T/C [15]: 47.8%
viability, T/C [16]: 31.7%
viability, T/C [17]: 24.4%
viability, T/C [18]: 11.9%
viability, T/C [19]: 93.1%
viability, T/C [20]: 74.8%
viability, T/C [21]: 52.7%
viability, T/C [22]: 36.9%
viability, T/C [23]: 21.5%
viability, T/C [24]: 13.6%
viability, T/C [25]: 70.2%
viability, T/C [26]: 58.6%
viability, T/C [27]: 52.1%
viability, T/C [28]: 42.4%
viability, T/C [29]: 16.9%
viability, T/C [30]: 12.7%
viability, T/C [31]: 73.2%
viability, T/C [32]: 56.8%
viability, T/C [33]: 35.2%
viability, T/C [34]: 23.2%
viability, T/C [35]: 13.5%
viability, T/C [36]: 5.55%
viability, T/C [37]: 34.1%
viability, T/C [38]: 26.7%
viability, T/C [39]: 22.8%
viability, T/C [40]: 14.3%
viability, T/C [41]: 6.25%
viability, T/C [42]: 3.6%

Compound: CCn1c(-c2cc(N3CCN(C)CC3)cnc2C(C)OC)c2c3cc(ccc31)-c1csc(n1)CC(NC(=O)C1CC1C)C(=O)N1CCCC(N1)C(=O)OCC(C)(C)C2 (configuration not stated)
viability, T/C (compound 0.003 µM): 46.6% [middle of 8 runs]
viability, T/C (compound 0.00949 µM): 25.5% [middle of 8 runs]
viability, T/C (compound 0.03 µM): 14% [middle of 8 runs]
viability, T/C (compound 0.0949 µM): 11.6% [middle of 8 runs]
viability, T/C (compound 0.3 µM): 12.3% [middle of 8 runs]
IC50 (compound alone, run of 08/26/2024): 2.7 nM [middle of 8 runs]

Now from value to molecule, other results behind:

IC50 (curve of first compound, second compound 0.00316 µM): 4.29 µM
IC50 (curve of first compound, second compound 0.01 µM): 4.16 µM
IC50 (curve of first compound, second compound 0.0316 µM): 4.67 µM
IC50 (curve of first compound, second compound 0.1 µM): 4.25 µM
IC50 (curve of first compound, second compound 0.316 µM): 4.34 µM
IC50 (curve of first compound, second compound 1 µM): 4.13 µM
Compound: CC1(O)CCCC1n1c(=O)c(C(F)F)cc2cnc(NC3CCN(S(C)(=O)=O)CC3)nc21 (configuration not stated) + C=CC(=O)N1CCN(c2nc(OCC3CCCN3C)nc3c(F)c(-c4nc(N)cc(C)c4C(F)(F)F)c(Cl)cc23)C(C)C1
viability, T/C (second compound 0.00316 µM, first compound 0.0316 µM): 96.7%
viability, T/C (second compound 0.00316 µM, first compound 0.1 µM): 91.2%
viability, T/C (second compound 0.00316 µM, first compound 0.316 µM): 86.1%
viability, T/C (second compound 0.00316 µM, first compound 1 µM): 76.8%
viability, T/C (second compound 0.00316 µM, first compound 3.16 µM): 66.9%
viability, T/C (second compound 0.00316 µM, first compound 10 µM): 14.1%
viability, T/C (second compound 0.01 µM, first compound 0.0316 µM): 103%
viability, T/C (second compound 0.01 µM, first compound 0.1 µM): 103%
viability, T/C (second compound 0.01 µM, first compound 0.316 µM): 90.1%
viability, T/C (second compound 0.01 µM, first compound 1 µM): 72.9%
viability, T/C (second compound 0.01 µM, first compound 3.16 µM): 69%
viability, T/C (second compound 0.01 µM, first compound 10 µM): 15.8%
viability, T/C (second compound 0.0316 µM, first compound 0.0316 µM): 97.8%
viability, T/C (second compound 0.0316 µM, first compound 0.1 µM): 104%
viability, T/C (second compound 0.0316 µM, first compound 0.316 µM): 85.9%
viability, T/C (second compound 0.0316 µM, first compound 1 µM): 76.7%
viability, T/C (second compound 0.0316 µM, first compound 3.16 µM): 75.5%
viability, T/C (second compound 0.0316 µM, first compound 10 µM): 14.7%
viability, T/C (second compound 0.1 µM, first compound 0.0316 µM): 107%
viability, T/C (second compound 0.1 µM, first compound 0.1 µM): 104%
viability, T/C (second compound 0.1 µM, first compound 0.316 µM): 88%
viability, T/C (second compound 0.1 µM, first compound 1 µM): 75.2%
viability, T/C (second compound 0.1 µM, first compound 3.16 µM): 73.9%
viability, T/C (second compound 0.1 µM, first compound 10 µM): 10.9%
viability, T/C (second compound 0.316 µM, first compound 0.0316 µM): 106%
viability, T/C (second compound 0.316 µM, first compound 0.1 µM): 89.5%
viability, T/C (second compound 0.316 µM, first compound 0.316 µM): 94.9%
viability, T/C (second compound 0.316 µM, first compound 1 µM): 75.7%
viability, T/C (second compound 0.316 µM, first compound 3.16 µM): 72%
viability, T/C (second compound 0.316 µM, first compound 10 µM): 9.28%
viability, T/C (second compound 1 µM, first compound 0.0316 µM): 115%
viability, T/C (second compound 1 µM, first compound 0.1 µM): 105%
viability, T/C (second compound 1 µM, first compound 0.316 µM): 92.5%
viability, T/C (second compound 1 µM, first compound 1 µM): 76.4%
viability, T/C (second compound 1 µM, first compound 3.16 µM): 74.9%
viability, T/C (second compound 1 µM, first compound 10 µM): 6.44%

IC50 (compound alone, run of 09/09/2024): > 1 µM
IC50 (curve of compound): > 1 µM
Compound: C=CC(=O)N1CCN(c2nc(OCC3CCCN3C)nc3c(F)c(-c4nc(N)cc(C)c4C(F)(F)F)c(Cl)cc23)C(C)C1 (configuration not stated)
viability, T/C (compound 0.01 µM): 102% [middle of 11 runs]
viability, T/C (compound 0.1 µM): 106% [middle of 11 runs]
viability, T/C (compound 1 µM): 112% [middle of 11 runs]

IC50 [1]: > 10 µM
IC50 [2]: 9.07 µM
IC50 [3]: 9.59 µM
IC50 [4]: > 10 µM
IC50 [5]: 6.58 µM
IC50 [6]: 4.12 µM
Compound: CC1(O)CCCC1n1c(=O)c(C(F)F)cc2cnc(NC3CCN(S(C)(=O)=O)CC3)nc21 (configuration not stated) + CCn1c(-c2cccnc2C(C)OC)c2c3cc(ccc31)N1CCOC(CC(NC(=O)C(C(C)C)N(C)C(=O)C3(F)CCN(C(=O)C#CC(C)(C)N(C)C)CC3)C(=O)N3CCCC(N3)C(=O)OCC(C)(C)C2)C1
viability, T/C [7]: 112%
viability, T/C [8]: 89.6%
viability, T/C [9]: 97.3%
viability, T/C [10]: 84.6%
viability, T/C [11]: 85.4%
viability, T/C [12]: 50%
viability, T/C [13]: 114%
viability, T/C [14]: 90.7%
viability, T/C [15]: 108%
viability, T/C [16]: 93.5%
viability, T/C [17]: 82.2%
viability, T/C [18]: 46.5%
viability, T/C [19]: 88.9%
viability, T/C [20]: 114%
viability, T/C [21]: 94.1%
viability, T/C [22]: 86.4%
viability, T/C [23]: 87.5%
viability, T/C [24]: 47.9%
viability, T/C [25]: 112%
viability, T/C [26]: 90.4%
viability, T/C [27]: 90%
viability, T/C [28]: 84.4%
viability, T/C [29]: 87.8%
viability, T/C [30]: 51.4%
viability, T/C [31]: 90.5%
viability, T/C [32]: 99.6%
viability, T/C [33]: 85.8%
viability, T/C [34]: 75.5%
viability, T/C [35]: 78.6%
viability, T/C [36]: 36%
viability, T/C [37]: 54.8%
viability, T/C [38]: 56.4%
viability, T/C [39]: 58.2%
viability, T/C [40]: 57.4%
viability, T/C [41]: 62.3%
viability, T/C [42]: 23.9%
